pEC50, pIC50: −log10 of the molar value.
Tests used:
FRAP1 (mTOR) kinase = molecular target: T1, FRAP1 (mTOR) kinase (Homo sapiens, UniProt P42345); assay: Inhibition of mTOR-induced p-4E-BP1 phosphorylation (TR-FRET mTOR Activity Kit; Invitrogen); assay type: biochemical; settings: 400 nM GFP-4E-BP1 substrate, ~150 ng/mL mTOR, one hour at room temperature
T1 construct: purchased Invitrogen PV4753
Method in brief: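 LanthaScreen TR-FRET: mTOR with GFP-4E-BP1 substrate in HEPES pH 7.5 buffer with 10 mM MnCl2, compound preincubated 30 min at RT, then ATP added and reacted 1 h at 20-25 °C. Stopped with EDTA plus Tb-anti-p4E-BP1 (pThr46), 1 h; GFP/Tb emission ratio over a 16-point curve, sigmoidal fit for IC50.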

PC-3 cells = assay: Inhibition of proliferation: CyQuant PC-3; assay type: cell-based; settings: 72 h; PC-3 human prostate carcinoma cells, incubated with compounds for 3 days, CyQuant NF DNA dye
Method in brief: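 PC-3 proliferation read by CyQuant NF: DNA-binding dye with membrane permeabilization reagent added after medium removal, 30-60 min incubation, fluorescence at Ex 485/Em 530 nm. Proliferation judged from cell counts of drug-treated versus untreated controls.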

T1 sequence (P42345 1360-2549 limits assumed): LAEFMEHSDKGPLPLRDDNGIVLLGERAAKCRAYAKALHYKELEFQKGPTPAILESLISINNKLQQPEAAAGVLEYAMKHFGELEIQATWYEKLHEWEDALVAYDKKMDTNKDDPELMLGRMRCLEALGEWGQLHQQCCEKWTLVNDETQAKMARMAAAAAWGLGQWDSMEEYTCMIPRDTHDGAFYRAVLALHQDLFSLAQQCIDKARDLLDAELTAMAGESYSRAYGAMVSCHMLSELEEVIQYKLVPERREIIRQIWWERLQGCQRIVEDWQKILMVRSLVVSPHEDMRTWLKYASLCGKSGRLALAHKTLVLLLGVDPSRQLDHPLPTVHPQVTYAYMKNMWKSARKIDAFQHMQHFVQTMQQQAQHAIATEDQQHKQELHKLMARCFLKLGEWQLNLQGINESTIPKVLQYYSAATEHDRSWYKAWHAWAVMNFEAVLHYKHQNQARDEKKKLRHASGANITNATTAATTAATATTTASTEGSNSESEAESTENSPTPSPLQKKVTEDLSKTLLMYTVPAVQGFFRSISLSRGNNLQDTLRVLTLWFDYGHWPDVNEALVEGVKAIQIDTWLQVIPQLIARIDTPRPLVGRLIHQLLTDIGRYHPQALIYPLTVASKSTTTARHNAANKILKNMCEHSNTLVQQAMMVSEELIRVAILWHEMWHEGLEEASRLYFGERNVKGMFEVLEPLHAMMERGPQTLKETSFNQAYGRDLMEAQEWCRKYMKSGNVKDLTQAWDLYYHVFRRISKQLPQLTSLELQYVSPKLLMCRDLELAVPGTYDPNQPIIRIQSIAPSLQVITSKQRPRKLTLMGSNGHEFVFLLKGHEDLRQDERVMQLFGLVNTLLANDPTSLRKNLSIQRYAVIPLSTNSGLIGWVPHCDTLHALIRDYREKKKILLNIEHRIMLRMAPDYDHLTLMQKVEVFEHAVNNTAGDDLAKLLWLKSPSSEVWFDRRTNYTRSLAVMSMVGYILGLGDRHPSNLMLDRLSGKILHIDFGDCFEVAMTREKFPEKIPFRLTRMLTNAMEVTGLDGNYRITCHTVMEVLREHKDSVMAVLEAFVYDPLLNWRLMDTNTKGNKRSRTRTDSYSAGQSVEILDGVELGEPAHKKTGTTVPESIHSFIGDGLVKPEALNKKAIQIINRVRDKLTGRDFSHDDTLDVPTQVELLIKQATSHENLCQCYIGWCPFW

Structure (SMILES) | pIC50 (FRAP1 (mTOR) kinase) | pEC50 (PC-3 cells)
CC(=O)Nc1nc2c(s1)-c1c(c(-c3c[nH]cn3)nn1-c1ccc(C3(N(C)C)CC3)cc1)CCC2 [Example B-115] | 8.70 | 7.80
CNc1ccc(-c2nn(-c3ccccc3Cl)c3c2CCCc2nc(NC(C)=O)sc2-3)cn1 [Example B-28, N-[1-(2-Chloro-phenyl)-3-(6-methylamino-pyridin-3-yl)-1,4,5,6-tetrahydro-9-thia-1,2,7-triaza-cyclopenta[e]azulen-8-yl]-acetamide] | 7.30 | 7.15
CC(=O)Nc1nc2c(s1)-c1c(c(-c3ccc(N)nc3)nn1-c1ccccc1C)CCC2 [Example B-61, N-[3-(6-Amino-pyridin-3-yl)-1-o-tolyl-1,4,5,6-tetrahydro-9-thia-1,2,7-triaza-cyclopenta[e]azulen-8-yl]-acetamide] | 7.82 | 7.16
CC(=O)Nc1nc2c(s1)-c1c(c(-c3c[nH]c(C)n3)nn1-c1ccccc1C)CCC2 [Example B-120, N-[3-(2-Methyl-1H-imidazol-4-yl)-1-o-tolyl-1,4,5,6-tetrahydro-9-thia-1,2,7-triaza-cyclopenta[e]azulen-8-yl]-acetamide] | 7.19 | 6.60
CNc1ccc(-c2nn(C3CCN(C)CC3)c3c2CCCc2nc(NC(=O)N(C)C)sc2-3)cn1 [Example B-56] | 6.42 | 6.24
CNc1ccc(-c2nn(-c3ccccc3C)c3c2CCCc2nc(NC(=O)CCc4ncc[nH]4)sc2-3)cn1 [Example B-109] | 7.31 | 6.79
CC(=O)Nc1nc2c(s1)-c1c(c(-c3ccc(N)nc3)nn1-c1ccccc1Cl)CCC2 [Example B-64, N-[3-(6-Amino-pyridin-3-yl)-1-(2-chloro-phenyl)-1,4,5,6-tetrahydro-9-thia-1,2,7-triaza-cyclopenta[e]azulen-8-yl]-acetamide] | 8.05 | 7.09
CNC(=O)Nc1nc2c(s1)-c1c(c(-c3ccc(N)nc3)nn1-c1ccccc1C)CCC2 [Example B-148, 1-[3-(6-Amino-pyridin-3-yl)-1-o-tolyl-1,4,5,6-tetrahydro-9-thia-1,2,7-triaza-cyclopenta[e]azulen-8-yl]-3-methyl-urea] | 7.82 | 6.98
CNc1ccc(-c2nn(-c3ccccc3Cl)c3c2CCCc2nc(NC(=O)N(C)C)sc2-3)cn1 [Example B-45] | 6.11 | 6.43
C=CCn1nc(-c2ccc(C)nc2)c2c1-c1sc(NC(C)=O)nc1CCC2 [Example B-25] | 6.05 | 6.36
COCCn1nc(-c2ccc(N)nc2)c2c1-c1sc(NC(=O)N(C)C)nc1CCC2 [Example B-51] | 6.73 | 6.28
CCNc1ccc(-c2nn(-c3ccccc3C)c3c2CCCc2nc(NC(=O)CCOC)sc2-3)cn1 [Example B-71] | 6.86 | 6.50
CCNc1ccc(-c2nn(CCOC)c3c2CCCc2nc(NC(C)=O)sc2-3)cn1 [Example B-125] | 6.94 | 6.60
CC(=O)Nc1nc2c(s1)-c1c(c(-c3ccc(C)nc3)nn1C1CCN(C3CC3)CC1)CCC2 [Example B-12, N-[1-(1-Cyclopropyl-piperidin-4-yl)-3-(6-methyl-pyridin-3-yl)-1,4,5,6-tetrahydro-9-thia-1,2,7-triaza-cyclopent[e]azulen-8-yl]acetamide] | 7.51 | 6.90
COCCC(=O)Nc1nc2c(s1)-c1c(c(-c3ccc(N)nc3)nn1C(C)C)CCC2 [Example B-133, N-[3-(6-Amino-pyridin-3-yl)-1-isopropyl-1,4,5,6-tetrahydro-9-thia-1,2,7-triaza-cyclopenta[e]azulen-8-yl]-3-methoxy-propionamide] | 7.19 | 6.82
CCCn1nc(-c2ccc(C)nc2)c2c1-c1sc(NC(C)=O)nc1CCC2 [Example B-92] | 6.82 | 6.66
CCNc1ccc(-c2nn(-c3ccccc3)c3c2CCCc2nc(NC(C)=O)sc2-3)cn1 [Example B-122, N-[3-(6-Ethylamino-pyridin-3-yl)-1-phenyl-1,4,5,6-tetrahydro-9-thia-1,2,7-triaza-cyclopenta[e]azulen-8-yl]-acetamide] | 7.49 | 7.10

Structure (SMILES) | pIC50 (FRAP1 (mTOR) kinase) | pEC50 (PC-3 cells)
CCNc1ccc(-c2nn(-c3ccccc3C)c3c2CCCc2nc(NC(=O)CCc4nccn4C)sc2-3)cn1 [Example B-72] | 7.08 | 6.53
CN(C)C(=O)Nc1nc2c(s1)-c1c(c(-c3ccc(N)nc3)nn1C1CCN(C3CC3)CC1)CCC2 [Example B-49, 3-[3-(6-Amino-pyridin-3-yl)-1-(1-cyclopropyl-piperidin-4-yl)-1,4,5,6-tetrahydro-9-thia-1,2,7-triaza-cyclopenta[e]azulen-8-yl]-1,1-dimethyl-urea] | 7.39 | 6.81
COCCC(=O)Nc1nc2c(s1)-c1c(c(-c3ccc(N)nc3)nn1CC(C)C)CCC2 [Example B-134] | 7.22 | 6.84
CN(C)CCCC(=O)Nc1nc2c(s1)-c1c(c(-c3ccc(N)nc3)nn1-c1ccccc1F)CCC2 [Example E-16, N-[3-(6-Amino-pyridin-3-yl)-1-(2-fluoro-phenyl)-1,4,5,6-tetrahydro-9-thia-1,2,7-triaza-cyclopenta[e]azulen-8-yl]-4-dimethylamino-butyramide] | 7.89 | 7.49
CNc1ccc(-c2nn(-c3cccc(OC)c3)c3c2CCCc2nc(NC(C)=O)sc2-3)cn1 [Example B-89] | 7.24 | 7.14
CC(=O)Nc1nc2c(s1)-c1c(c(-c3ccc(C)nc3)nn1-c1ccncc1C)CCC2 [Example B-90] | 6.93 | 6.37
COCCC(=O)Nc1nc2c(s1)-c1c(c(-c3ccc(N)nc3)nn1-c1ccccc1C)CCC2 [Example B-103, N-[3-(6-Amino-pyridin-3-yl)-1-o-tolyl-1,4,5,6-tetrahydro-9-thia-1,2,7-triaza-cyclopenta[e]azulen-8-yl]-3-methoxy-propionamide] | 7.43 | 7.06
CC(=O)Nc1nc2c(s1)-c1c(c(-c3ccc(C)nc3)nn1-c1cccnc1C)CCC2 [Example B-137, N-[1-(2-Methyl-pyridin-3-yl)-3-(6-methyl-pyridin-3-yl)-1,4,5,6-tetrahydro-9-thia-1,2,7-triaza-cyclopent[e]azulen-8-yl]acetamide] | 6.37 | 5.91
CN(C)C(=O)Nc1nc2c(s1)-c1c(c(-c3ccc(N)nc3)nn1-c1ccccc1Cl)CCC2 [Example B-54] | 6.24 | 6.41
CC(C)n1nc(-c2ccc(N)nc2)c2c1-c1sc(NC(=O)N(C)C)nc1CCC2 [Example B-29] | 6.70 | 6.56
CNc1ccc(-c2nn(-c3ccccc3C)c3c2CCCc2nc(NC(=O)CCC(=O)N(C)C)sc2-3)cn1 [Example B-108] | 6.99 | 6.97
CNc1ccc(-c2nn(-c3ccccc3F)c3c2CCCc2nc(NC(C)=O)sc2-3)cn1 [Example B-81, N-[1-(2-Fluoro-phenyl)-3-(6-methylamino-pyridin-3-yl)-1,4,5,6-tetrahydro-9-thia-1,2,7-triaza-cyclopenta[e]azulen-8-yl]-acetamide] | 7.39 | 7.64
CCNc1ccc(-c2nn(-c3ccccc3Cl)c3c2CCCc2nc(NC(C)=O)sc2-3)cn1 [Example B-75] | 7.31 | 6.95
CCNc1ccc(-c2nn(-c3ccncc3C)c3c2CCCc2nc(NC(C)=O)sc2-3)cn1 [Example B-77, N-[3-(6-Ethylamino-pyridin-3-yl)-1-(3-methyl-pyridin-4-yl)-1,4,5,6-tetrahydro-9-thia-1,2,7-triaza-cyclopenta[e]azulen-8-yl]-acetamide] | 7.47 | 6.90
C=CCn1nc(-c2ccc(NCC)nc2)c2c1-c1sc(NC(C)=O)nc1CCC2 [Example B-129] | 7.03 | 6.58
CCNc1ccc(-c2nn(-c3ccccc3C)c3c2CCCc2nc(NC(=O)NC)sc2-3)cn1 [Example B-68] | 6.78 | 6.22
CNc1ccc(-c2nn(CC(C)C)c3c2CCCc2nc(NC(C)=O)sc2-3)cn1 [Example B-86, N-[1-isobutyl-3-(6-methylamino-pyridin-3-yl)-1,4,5,6-tetrahydro-9-thia-1,2,7-triaza-cyclopenta[e]azulen-8-yl]-acetamide] | 7.49 | 7.33

From patent publication US8288379B2, “Thia-triaza-cyclopentazulenes” (Boehringer Ingelheim International GmbH, priority 2009, dated 2012)
